Assay [1] deals with Feces samples from 20 persons. The assay can be described thus: Incubation of homogenized feces samples with fructose and minerals, gas-meter (Example 3). As to conditions: 1 g fructose per 100 g of feces; for reduction in the amount of gas, in words: 20 feces samples; for amounts of gas: incubated at 37°, control 150 ml. Details: species or system human. The protocol: The incubation containers were all added with 1 g fructose per 100 g of feces, and additionally with 1. Selenium 20 μg; 2. 40 μg tungsten, 3. […] 20 μg Selenium plus 40 μg molybdenum; 6. 40 μg Selenium plus 20 μg tungsten plus 1 drop multivitamin solution “Multibionta”, 7. 40 μg Selenium plus 20 μg tungsten plus 1 drop multivitamin solution “Multibionta” plus 1 mg of iron plus 20 μg nickel. A control tank was added only with fructose.
The incubation containers were fitted with a gas-meter, sealed gas-tight and incubated at 37°.

The test system of assay [2] is meteorism. The assay can be described thus: Person with meteorism after fiber-rich meals (Examples 15 and 16). Format: in vivo, human. The conditions noted are these: 1.5 mg three times daily in water, after one week of treatment. The protocol: A person who suffers from meteorism after eating fiber-rich meals is treated three times daily with 1.5 mg of sodium tungstate, which is dissolved in water administered with the drinking fluid during the main meals.
A person who suffers from meteorism after eating fiber-rich meals is treated three times daily with 1.5 mg of sodium tungstate, which is dissolved in 100 ml water with the addition of 100 mg phytic acid and is allowed to rest for 30 minutes, and is administered to the main meals with the drinking fluid.

Take Selenium: in assay [1], the “reduction in the amount of gas, in words” value is given as “significant gas reduction” and the amounts of gas was found to be 110 mL.
Turning to `[Na+].[Na+].[O]=[W](=[O])([O-])[O-]` [sodium tungstate], the meteorism result in assay [2] is listed as “significantly decreases”.
`[W]` [W, tungsten]: in assay [1], the “reduction in the amount of gas, in words” value was “significant gas reduction” and the amounts of gas stood at 100 mL.

The values are drawn from patent US20100247489A1, “USE OF A COMPOSITION MADE OF MINERAL NUTRIENTS AND OPTIONALLY ACETOGENIC AND/OR BUTYROGENIC BACTERIA IN ORDER TO AVOID OR REDUCE THE FORMATION OF GAS IN THE LARGE INTESTINE OF A MAMMAL AND THE RESULTING ABDOMINAL PROBLEMS” (priority 2006, published 2010).
